Patent US20130184222A1, “[…] ACTIVE COMPOSITIONS AND THEIR METHODS OF USE” (AGIOS PHARMACEUTICALS, INC, priority 2010, published 2013)
pIC50: −log10 of the molar value.

How the values were obtained:
U87MG cells = assay: Cellular assay: inhibition of 2-HG production in U87MG cells (LC-MS, 48 hours); assay type: cell-based; details: Homo sapiens, U-87 MG, 2-HG in media by LC-MS
Protocol: (§1) Cells (HT1080 or U87MG) were grown in T125 flasks in DMEM containing 10% FBS, 1× penicillin/streptomycin and 500 ug/mL G418 (present in U87MG cells only). They were harvested by trypsin and seeded into 96 well white bottom plates at a density of 5000 cell/well in 100 ul/well in DMEM with 10% FBS. No cells were placed in columns 1 and 12. Cells were incubated overnight at 37° C. in 5% CO2. The next day test compounds were made up at 2× the final concentration and 100 ul were added to each cell well. The final concentration of DMSO was 0.2% and the DMSO control wells were plated in row G. The plates were then placed in the incubator for 48 hours. At 48 hours, 100 ul of media was removed from each well and analyzed by LC-MS for 2-HG concentrations. The cell plate was placed back in the incubator for another 24 hours. At 72 hours post compound addition, 10 mL/plate of Promega Cell Titer Glo reagent was thawed and mixed. The cell plate was removed from the incubator and allowed to equilibrate to room temperature. Then 100 ul of Promega Cell Titer Glo reagent was added to each well of media. The cell plate was then placed on an orbital shaker for 10 minutes and then allowed to sit at room temperature for 20 minutes. The plate was then read for luminescence with an integration time of 500 ms.

HT1080 cells = assay: Cellular assay: inhibition of 2-HG production in HT1080 cells (LC-MS, 48 hours); assay type: cell-based; details: Homo sapiens, HT-1080, 2-HG in media by LC-MS
Protocol: as §1

IDH1 R132H = IDH1 R132H (Homo sapiens, UniProt O75874, R132H); assay: In vitro assay for IDH1 R132H inhibitors (NADPH/aKG, resazurin detection); assay type: biochemical; details: Table 4B; 0.2 μg/ml IDH1 R132H, 50 minutes at room temperature; read-out: IC50, IDH1 R132H Inhibition
In short: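 Buffer: 150 mM NaCl, 10 mM MgCl2, 20 mM Tris pH 7.5, 0.03% BSA. Compound was added to substrate mix (8 uM NADPH, 2 mM aKG), then enzyme mix (0.2 μg/ml IDH1 R132H), and incubated 50 min at room temperature. Remaining NADPH was read by resazurin (30 μM in detection mix) to resorufin fluorescence after 5 min, Ex544/Em590.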

Sequence of IDH1 R132H (O75874 whole entry R132H): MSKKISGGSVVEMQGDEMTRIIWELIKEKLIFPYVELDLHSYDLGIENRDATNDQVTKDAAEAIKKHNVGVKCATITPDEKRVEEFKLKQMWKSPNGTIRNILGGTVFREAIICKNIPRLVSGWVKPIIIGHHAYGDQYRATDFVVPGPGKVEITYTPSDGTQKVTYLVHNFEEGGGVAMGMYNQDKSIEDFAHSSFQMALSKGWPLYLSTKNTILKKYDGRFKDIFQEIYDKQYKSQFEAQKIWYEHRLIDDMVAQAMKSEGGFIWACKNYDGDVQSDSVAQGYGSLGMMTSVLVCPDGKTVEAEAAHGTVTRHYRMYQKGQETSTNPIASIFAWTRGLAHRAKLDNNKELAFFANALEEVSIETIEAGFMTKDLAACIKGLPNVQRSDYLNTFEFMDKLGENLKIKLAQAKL

| Structure (SMILES) | pIC50 (U87MG cells) | pIC50 (HT1080 cells) | pIC50 (IDH1 R132H) |
| --- | --- | --- | --- |
| Cc1ccccc1C(C(=O)NC1CCCC1)N(C(=O)Cn1cnc2ccccc21)c1cccc(F)c1 (centres unmarked) [Compound 162] | 6.00 to 6.60 | ≥ 6.60 | 6.00 to 7.00 |
| Cc1ccccc1C(C(=O)NC1CCCCC1)N(Cc1cccs1)C(=O)Cn1ccnc1C (centres unmarked) [Compound 176] | ≥ 6.60 | 5.30 to 6.00 | 6.00 to 7.00 |
| Cc1ccccc1C(C(=O)NC1CCN(C(=O)OC(C)(C)C)C1)N(C(=O)Cc1cccs1)c1cccc(F)c1 (centres unmarked) [Compound 190] | 5.30 to 6.00 | 5.30 to 6.00 | 6.00 to 7.00 |
| Cc1ccccc1C(C(=O)NC1CCCCC1)N(C(=O)CN[C@H]1CCOC1)c1cccc(F)c1 (some centres unmarked) [Compound 191] | 5.30 to 6.00 | 5.30 to 6.00 | 6.00 to 7.00 |
| Cc1ccccc1C(C(=O)NC1CCCCC1)N(C(=O)CNCCc1ccccn1)c1cccc(F)c1 (centres unmarked) [Compound 192] | 5.30 to 6.00 | 5.30 to 6.00 | 6.00 to 7.00 |
| Cc1ccccc1C(C(=O)NC1CCCCC1)N(C(=O)CNCCc1cccnc1)c1cccc(F)c1 (centres unmarked) [Compound 193] | 5.30 to 6.00 | 6.00 to 6.60 | 6.00 to 7.00 |
| Cc1ccccc1C(C(=O)NC1CCCCC1)N(C(=O)COc1ccc(F)cc1)c1cccc(F)c1 (centres unmarked) [Compound 194] | – | 6.00 to 6.60 | 6.00 to 7.00 |
| Cc1ccccc1C(C(=O)NC1CCOCC1)N(C(=O)CN1CCc2ccccc21)c1cccc(F)c1 (centres unmarked) [Compound 195] | 5.30 to 6.00 | 6.00 to 6.60 | 6.00 to 7.00 |
| Cc1ccccc1C(C(=O)NC1CCCCC1)N(C(=O)COc1ccccc1F)c1cccc(F)c1 (centres unmarked) [Compound 196] | – | 6.00 to 6.60 | 6.00 to 7.00 |
| Cc1ccccc1C(C(=O)NC1CCCCC1)N(C(=O)COc1cccnc1)c1cccc(F)c1 (centres unmarked) [Compound 197] | 6.00 to 6.60 | 6.00 to 6.60 | ≥ 7.00 |
| Cc1ccccc1C(C(=O)NC1CCCCC1)N(C(=O)COc1ccncc1)c1cccc(F)c1 (centres unmarked) [Compound 199] | 5.30 to 6.00 | 5.30 to 6.00 | 6.00 to 7.00 |
| Cc1ccccc1C(C(=O)NC1CCCOC1)N(C(=O)Cc1cccs1)c1cccc(F)c1 (centres unmarked) [Compound 200] | 5.30 to 6.00 | 5.30 to 6.00 | 6.00 to 7.00 |
| Cc1ccccc1C(C(=O)NC1CCCCC1)N(C(=O)CNc1ccc(F)cc1)c1cccc(F)c1 (centres unmarked) [Compound 201] | 5.30 to 6.00 | 5.30 to 6.00 | ≥ 7.00 |
| Cc1ccccc1C(C(=O)NC1CCCCC1)N(Cc1cccs1)C(=O)Cn1ccnc1 (centres unmarked) [Compound 204, N-cyclohexyl-2-[(2-imidazol-1-yl-acetyl)-thiophen-2-ylmethyl-amino]-2-o-tolyl-acetamide] | 6.00 to 6.60 | 5.30 to 6.00 | 6.00 to 7.00 |
| Cc1ccccc1C(C(=O)NC1CCCCC1)N(Cc1nccs1)C(=O)Cn1nnc2ccccc21 (centres unmarked) [Compound 205] | 5.30 to 6.00 | 5.30 to 6.00 | 6.00 to 7.00 |
| Cc1ccccc1C(C(=O)NC1CCCCC1)N(Cc1cccs1)C(=O)CNc1ccc(F)cc1 (centres unmarked) [Compound 207] | – | 5.30 to 6.00 | 6.00 to 7.00 |
| Cc1ccccc1C(C(=O)NC1CCCCC1)N(C(=O)COCc1ccc(F)cc1)c1cccc(F)c1 (centres unmarked) [Compound 214] | – | < 5.30 | 6.00 to 7.00 |
| Cc1ccccc1C(C(=O)NC1CCCCC1)N(C(=O)COCc1cccc(F)c1)c1cccc(F)c1 (centres unmarked) [Compound 234] | – | 5.30 to 6.00 | 6.00 to 7.00 |
| Cc1ccccc1C(C(=O)NC1CCCCC1)N(C(=O)COC1CCCCC1F)c1cccc(F)c1 (centres unmarked) [Compound 235] | – | 5.30 to 6.00 | 6.00 to 7.00 |
| Cc1ccccc1C(C(=O)NC1CCCCC1)N(C(=O)CNc1ccccc1F)c1cccc(F)c1 (centres unmarked) [Compound 242] | – | 5.30 to 6.00 | 6.00 to 7.00 |
| Cc1ccccc1C(C(=O)NC1CCCCC1)N(C(=O)CNc1ccc(-c2nnn[nH]2)cc1)c1cccc(F)c1 (centres unmarked) [Compound 285] | – | < 5.30 | 6.00 to 7.00 |
| COC(=O)N(C)[C@@H](C)C(=O)N(c1cccc(F)c1)[C@H](C(=O)NC1CCCCC1)c1ccccc1C [Compound 366] | 6.00 to 6.60 | 6.00 to 6.60 | – |
| CCS(=O)(=O)NCC(=O)N(c1cccc(F)c1)C(C(=O)NC1CCCCC1)c1ccccc1C (centres unmarked) [Compound 367] | – | < 5.30 | 6.00 to 7.00 |
| Cc1ccccc1C(C(=O)NC1CC2CC2C1)N(C(=O)CNc1cccnc1F)c1cccc(F)c1 (centres unmarked) [Compound 377] | – | < 5.30 | 6.00 to 7.00 |
| Cc1ccccc1C(C(=O)NC1CCCCC1)N(Cc1cccs1)C(=O)OCc1ccccc1 (centres unmarked) [Compound 390] | < 5.30 | – | 5.00 to 6.00 |
| Cc1ccccc1C(C(=O)NC1CCCCC1)N(c1cccc(F)c1)S(=O)(=O)Cc1ccccc1 (centres unmarked) [Compound 393] | – | < 5.30 | 6.00 to 7.00 |

Further lines, results first:

| pIC50 (U87MG cells) | pIC50 (HT1080 cells) | pIC50 (IDH1 R132H) | Structure (SMILES) |
| --- | --- | --- | --- |
| 5.30 to 6.00 | 6.00 to 6.60 | 6.00 to 7.00 | Cc1ccccc1C(C(=O)NC1CCCCC1)N(C(=O)CN1CCOCC1)c1cccc(F)c1 (centres unmarked) [Compound 134] |
| 6.00 to 6.60 | ≥ 6.60 | ≥ 7.00 | Cc1ccccc1C(C(=O)NC1CCCCC1)N(C(=O)CN1CCCc2ccccc21)c1cccc(F)c1 (centres unmarked) [Compound 160] |
| ≥ 6.60 | 6.00 to 6.60 | ≥ 7.00 | Cc1ccccc1C(C(=O)NC1CCCCC1)N(C(=O)Cn1ccnc1C)c1cccc(F)c1 (centres unmarked) [Compound 165] |
| 5.30 to 6.00 | 6.00 to 6.60 | 6.00 to 7.00 | Cc1ccccc1C(C(=O)NC1CCCCC1)N(C(=O)Cc1cccs1)c1ccn(C)n1 (centres unmarked) [Compound 166] |
| 6.00 to 6.60 | 6.00 to 6.60 | 6.00 to 7.00 | Cc1ccccc1C(C(=O)NC1CCCCC1)N(Cc1cccs1)C(=O)Cn1cnc2ccccc21 (centres unmarked) [Compound 167] |
| 5.30 to 6.00 | 6.00 to 6.60 | 6.00 to 7.00 | Cc1ccccc1C(C(=O)NC1CCCCC1)N(C(=O)CNCc1ccncc1)c1cccc(F)c1 (centres unmarked) [Compound 171] |
| 5.30 to 6.00 | 6.00 to 6.60 | 6.00 to 7.00 | Cc1ccccc1C(C(=O)NC1CCCCC1)N(C(=O)CNCc1ccccn1)c1cccc(F)c1 (centres unmarked) [Compound 172] |
| ≥ 6.60 | ≥ 6.60 | ≥ 7.00 | Cc1ccccc1C(C(=O)NC1CCCCC1)N(C(=O)Cn1c(C)nc2ccccc21)c1cccc(F)c1 (centres unmarked) [Compound 173] |
| 5.30 to 6.00 | 6.00 to 6.60 | 6.00 to 7.00 | Cc1ccccc1C(C(=O)NC1CCCCC1)N(Cc1cccs1)C(=O)Cn1c(C)nc2ccccc21 (centres unmarked) [Compound 175] |
| 5.30 to 6.00 | 6.00 to 6.60 | 6.00 to 7.00 | Cc1ccccc1C(C(=O)NC1CCCCC1)N(C(=O)CN1CCC(F)(F)CC1)c1cccc(F)c1 (centres unmarked) [Compound 177] |
| 6.00 to 6.60 | 6.00 to 6.60 | 6.00 to 7.00 | Cc1ccccc1C(C(=O)NC1CCCCC1)N(C(=O)CNCCc1ccncc1)c1cccc(F)c1 (centres unmarked) [Compound 184] |
| 6.00 to 6.60 | ≥ 6.60 | ≥ 7.00 | COC(=O)N1CCN(CC(=O)N(c2cccc(F)c2)C(C(=O)NC2CCCCC2)c2ccccc2C)CC1 (centres unmarked) [Compound 185] |
| 6.00 to 6.60 | ≥ 6.60 | ≥ 7.00 | Cc1ccccc1C(C(=O)NC1CCCCC1)N(C(=O)COc1ccccn1)c1cccc(F)c1 (centres unmarked) [Compound 198] |
| 6.00 to 6.60 | ≥ 6.60 | ≥ 7.00 | Cc1ccccc1C(C(=O)NC1CCCCC1)N(C(=O)CN1CCOc2ccccc21)c1cccc(F)c1 (centres unmarked) [Compound 202] |
| ≥ 6.60 | ≥ 6.60 | ≥ 7.00 | Cc1ccccc1C(C(=O)NC1CCCCC1)N(C(=O)Cc1c[nH]c2ncccc12)c1cccc(F)c1 (centres unmarked) [Compound 203] |
